{"source": "patent US20100160454A1", "about": "“ANTIMICROBIAL AGENTS, COMPOSITIONS AND PRODUCTS CONTAINING THE SAME, AND METHODS OF USING THE COMPOSITIONS AND PRODUCTS” (Eastman Chemical Company, priority 2008, published 2010)", "test_in_all_cases": "Microbiological challenge testing in BPW broth, graded subculture counts", "assay_type_in_all_cases": "cell-based", "key": {"[1]": {"system": "Proteus vulgaris Wild type", "summary_of_the_method": "(§1)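 TSB + 1% dextrose cultures, 35 ± 2 °C, ≥96 h. Inoculum calibrated by NTU vs plate counts; challenge at 10^5–10^6 CFU/mL final in BPW/1% dextrose with test material. Triplicates (butoxyethanol in duplicate). Spread plates on PCA, ≥48 h, CFU/mL = count × dilution.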"}, "[2]": {"system": "Burkholderia cepacia Wild type", "conditions": "B. cepacia", "summary_of_the_method": "as §1"}, "[3]": {"system": "Staphylococcus aureus ATCC 25923", "conditions": "S. aureus", "summary_of_the_method": "as §1"}, "[4]": {"system": "Aspergillus niger Wild type", "conditions": "A. niger", "summary_of_the_method": "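Wild-type A. niger, grown in TSB with 1% dextrose at 22 °C and on SABD until sporulation, was adjusted to 1.0×10^8 spores/vegetative cells (hemocytometer). It was inoculated in triplicate into BPW with 1% dextrose to give 10^5 to 10^6 CFU/mL at time zero. Counts were by spread plate on SABD, ≥48 h at 22 °C, CFU/mL = count × dilution factor.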"}, "[5]": {"system": "Candida albicans Wild type", "conditions": "C. albicans", "summary_of_the_method": "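Wild-type C. albicans grown in TSB with 1% dextrose at 22 °C, then adjusted by turbidity and hemocytometer to a 10^8 CFU/mL challenge confirmed on SABD plates. Challenge added to BPW broth containing 1% dextrose, giving 10^5 to 10^6 CFU/mL at time zero; controls in triplicate. Counts by serial dilution and spread-plating after at least 48 h incubation.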"}}, "data": [{"smiles": "CC(O)CO", "note": "(stereo not drawn) [PG, propylene glycol]", "values": [{"measurement": "P. vulgaris growth grade, 3 day", "setting": "[1]; 0.5% weight/volume", "value": "4 (1000 to 10,000 colonies countable (thus 10,000 CFU/mL to 100,000 CFU/mL))"}, {"measurement": "P. vulgaris growth grade, 13 day", "setting": "[1]; 0.5% weight/volume", "value": "4 (1000 to 10,000 colonies countable (thus 10,000 CFU/mL to 100,000 CFU/mL))"}, {"measurement": "P. vulgaris growth grade, 30 day", "setting": "[1]; 0.5% weight/volume", "value": "4 (1000 to 10,000 colonies countable (thus 10,000 CFU/mL to 100,000 CFU/mL))"}, {"measurement": "P. vulgaris growth grade, 3 day", "setting": "[1]; 1.25% weight/volume", "value": "4 (1000 to 10,000 colonies countable (thus 10,000 CFU/mL to 100,000 CFU/mL))"}, {"measurement": "P. vulgaris growth grade, 13 day", "setting": "[1]; 1.25% weight/volume", "value": "4 (1000 to 10,000 colonies countable (thus 10,000 CFU/mL to 100,000 CFU/mL))"}, {"measurement": "P. vulgaris growth grade, 30 day", "setting": "[1]; 1.25% weight/volume", "value": "4 (1000 to 10,000 colonies countable (thus 10,000 CFU/mL to 100,000 CFU/mL))"}, {"measurement": "P. vulgaris growth grade, 3 day", "setting": "[1]; 2.5% weight/volume", "value": "4 (1000 to 10,000 colonies countable (thus 10,000 CFU/mL to 100,000 CFU/mL))"}, {"measurement": "P. vulgaris growth grade, 13 day", "setting": "[1]; 2.5% weight/volume", "value": "4 (1000 to 10,000 colonies countable (thus 10,000 CFU/mL to 100,000 CFU/mL))"}, {"measurement": "P. vulgaris growth grade, 30 day", "setting": "[1]; 2.5% weight/volume", "value": "4 (1000 to 10,000 colonies countable (thus 10,000 CFU/mL to 100,000 CFU/mL))"}, {"measurement": "P. vulgaris growth grade, 3 day", "setting": "[1]; 5.0% weight/volume", "value": "4 (1000 to 10,000 colonies countable (thus 10,000 CFU/mL to 100,000 CFU/mL))"}, {"measurement": "P. vulgaris growth grade, 13 day", "setting": "[1]; 5.0% weight/volume", "value": "4 (1000 to 10,000 colonies countable (thus 10,000 CFU/mL to 100,000 CFU/mL))"}, {"measurement": "P. vulgaris growth grade, 30 day", "setting": "[1]; 5.0% weight/volume", "value": "4 (1000 to 10,000 colonies countable (thus 10,000 CFU/mL to 100,000 CFU/mL))"}, {"measurement": "Grade", "setting": "[2]; 0.5% (wt/vol), 3 day", "value": "5 (More than 10,000 colonies estimated (thus more than 100,000 CFU/mL))"}, {"measurement": "Grade", "setting": "[2]; 0.5% (wt/vol), 14 day", "value": "5 (More than 10,000 colonies estimated (thus more than 100,000 CFU/mL))"}, {"measurement": "Grade", "setting": "[2]; 0.5% (wt/vol), 30 day", "value": "5 (More than 10,000 colonies estimated (thus more than 100,000 CFU/mL))"}, {"measurement": "Grade", "setting": "[2]; 1.25% (wt/vol), 3 day", "value": "5 (More than 10,000 colonies estimated (thus more than 100,000 CFU/mL))"}, {"measurement": "Grade", "setting": "[2]; 1.25% (wt/vol), 14 day", "value": "5 (More than 10,000 colonies estimated (thus more than 100,000 CFU/mL))"}, {"measurement": "Grade", "setting": "[2]; 1.25% (wt/vol), 30 day", "value": "5 (More than 10,000 colonies estimated (thus more than 100,000 CFU/mL))"}, {"measurement": "Grade", "setting": "[2]; 2.5% (wt/vol), 3 day", "value": "5 (More than 10,000 colonies estimated (thus more than 100,000 CFU/mL))"}, {"measurement": "Grade", "setting": "[2]; 2.5% (wt/vol), 14 day", "value": "5 (More than 10,000 colonies estimated (thus more than 100,000 CFU/mL))"}, {"measurement": "Grade", "setting": "[2]; 2.5% (wt/vol), 30 day", "value": "5 (More than 10,000 colonies estimated (thus more than 100,000 CFU/mL))"}, {"measurement": "Grade", "setting": "[2]; 5.0% (wt/vol), 3 day", "value": "4 (1000 to 10,000 colonies countable (thus 10,000 CFU/mL to 100,000 CFU/mL))"}, {"measurement": "Grade", "setting": "[2]; 5.0% (wt/vol), 14 day", "value": "4 (1000 to 10,000 colonies countable (thus 10,000 CFU/mL to 100,000 CFU/mL))"}, {"measurement": "Grade", "setting": "[2]; 5.0% (wt/vol), 30 day", "value": "4 (1000 to 10,000 colonies countable (thus 10,000 CFU/mL to 100,000 CFU/mL))"}, {"measurement": "Grade", "setting": "[3]; 0.5% (wt/vol), 3 day", "value": "5 (More than 10,000 colonies estimated (thus more than 100,000 CFU/mL))"}, {"measurement": "Grade", "setting": "[3]; 0.5% (wt/vol), 14 day", "value": "4 (1000 to 10,000 colonies countable (thus 10,000 CFU/mL to 100,000 CFU/mL))"}, {"measurement": "Grade", "setting": "[3]; 0.5% (wt/vol), 30 day", "value": "4 (1000 to 10,000 colonies countable (thus 10,000 CFU/mL to 100,000 CFU/mL))"}, {"measurement": "Grade", "setting": "[3]; 1.25% (wt/vol), 3 day", "value": "4 (1000 to 10,000 colonies countable (thus 10,000 CFU/mL to 100,000 CFU/mL))"}, {"measurement": "Grade", "setting": "[3]; 1.25% (wt/vol), 14 day", "value": "4 (1000 to 10,000 colonies countable (thus 10,000 CFU/mL to 100,000 CFU/mL))"}, {"measurement": "Grade", "setting": "[3]; 1.25% (wt/vol), 30 day", "value": "4 (1000 to 10,000 colonies countable (thus 10,000 CFU/mL to 100,000 CFU/mL))"}, {"measurement": "Grade", "setting": "[3]; 2.5% (wt/vol), 3 day", "value": "4 (1000 to 10,000 colonies countable (thus 10,000 CFU/mL to 100,000 CFU/mL))"}, {"measurement": "Grade", "setting": "[3]; 2.5% (wt/vol), 14 day", "value": "4 (1000 to 10,000 colonies countable (thus 10,000 CFU/mL to 100,000 CFU/mL))"}, {"measurement": "Grade", "setting": "[3]; 2.5% (wt/vol), 30 day", "value": "4 (1000 to 10,000 colonies countable (thus 10,000 CFU/mL to 100,000 CFU/mL))"}, {"measurement": "Grade", "setting": "[3]; 5.0% (wt/vol), 3 day", "value": "4 (1000 to 10,000 colonies countable (thus 10,000 CFU/mL to 100,000 CFU/mL))"}, {"measurement": "Grade", "setting": "[3]; 5.0% (wt/vol), 14 day", "value": "4 (1000 to 10,000 colonies countable (thus 10,000 CFU/mL to 100,000 CFU/mL))"}, {"measurement": "Grade", "setting": "[3]; 5.0% (wt/vol), 30 day", "value": "4 (1000 to 10,000 colonies countable (thus 10,000 CFU/mL to 100,000 CFU/mL))"}, {"measurement": "Grade", "setting": "[4]; 0.5% (wt/vol), 3 day", "value": 5}, {"measurement": "Grade", "setting": "[4]; 0.5% (wt/vol), 13 day", "value": 5}, {"measurement": "Grade", "setting": "[4]; 0.5% (wt/vol), 30 day", "value": 5}, {"measurement": "Grade", "setting": "[4]; 1.25% (wt/vol), 3 day", "value": 5}, {"measurement": "Grade", "setting": "[4]; 1.25% (wt/vol), 13 day", "value": 5}, {"measurement": "Grade", "setting": "[4]; 1.25% (wt/vol), 30 day", "value": 5}, {"measurement": "Grade", "setting": "[4]; 2.5% (wt/vol), 3 day", "value": 4}, {"measurement": "Grade", "setting": "[4]; 2.5% (wt/vol), 13 day", "value": 5}, {"measurement": "Grade", "setting": "[4]; 2.5% (wt/vol), 30 day", "value": 5}, {"measurement": "Grade", "setting": "[4]; 5.0% (wt/vol), 3 day", "value": 4}, {"measurement": "Grade", "setting": "[4]; 5.0% (wt/vol), 13 day", "value": 4}, {"measurement": "Grade", "setting": "[4]; 5.0% (wt/vol), 30 day", "value": 4}, {"measurement": "Grade", "setting": "[5]; 0.5% (wt/vol), 3 day", "value": "5 (More than 10,000 colonies estimated (thus more than 100,000 CFU/mL))"}, {"measurement": "Grade", "setting": "[5]; 0.5% (wt/vol), 14 day", "value": "5 (More than 10,000 colonies estimated (thus more than 100,000 CFU/mL))"}, {"measurement": "Grade", "setting": "[5]; 0.5% (wt/vol), 30 day", "value": "5 (More than 10,000 colonies estimated (thus more than 100,000 CFU/mL))"}, {"measurement": "Grade", "setting": "[5]; 1.25% (wt/vol), 3 day", "value": "5 (More than 10,000 colonies estimated (thus more than 100,000 CFU/mL))"}, {"measurement": "Grade", "setting": "[5]; 1.25% (wt/vol), 14 day", "value": "5 (More than 10,000 colonies estimated (thus more than 100,000 CFU/mL))"}, {"measurement": "Grade", "setting": "[5]; 1.25% (wt/vol), 30 day", "value": "5 (More than 10,000 colonies estimated (thus more than 100,000 CFU/mL))"}, {"measurement": "Grade", "setting": "[5]; 2.5% (wt/vol), 3 day", "value": "4 (1000 to 10,000 colonies countable (thus 10,000 CFU/mL to 100,000 CFU/mL))"}, {"measurement": "Grade", "setting": "[5]; 2.5% (wt/vol), 14 day", "value": "4 (1000 to 10,000 colonies countable (thus 10,000 CFU/mL to 100,000 CFU/mL))"}, {"measurement": "Grade", "setting": "[5]; 2.5% (wt/vol), 30 day", "value": "4 (1000 to 10,000 colonies countable (thus 10,000 CFU/mL to 100,000 CFU/mL))"}, {"measurement": "Grade", "setting": "[5]; 5.0% (wt/vol), 3 day", "value": "3 (100 to 1000 colonies (thus 1000 to 10,000 CFU/mL))"}, {"measurement": "Grade", "setting": "[5]; 5.0% (wt/vol), 14 day", "value": "4 (1000 to 10,000 colonies countable (thus 10,000 CFU/mL to 100,000 CFU/mL))"}, {"measurement": "Grade", "setting": "[5]; 5.0% (wt/vol), 30 day", "value": "4 (1000 to 10,000 colonies countable (thus 10,000 CFU/mL to 100,000 CFU/mL))"}]}]}
